Measured values: patent US7122340B2, “Regulatory T cells; methods” (Schering Corporation, priority 2000, dated 2006)

Test system: naive T cells (CD4+CD62L+)
Test: Differentiation of naive CD4+ T cells stimulated with antigen and antigen presenting cells; cytokine profile after restimulation (FACS, secreted cytokines)
Type: cell-based, mouse
Conditions: antigen and APC culture of DO11.10 CD4+ T cells
Procedure: IL-2 is present in the culture after the first 3 days of activation. VitD3 is used at 4×10^-8 M (preferably in the range 4×10^-9 M to 4×10^-7 M) while DEX is used at 10^-8M (preferably in the range of 10^-9 M to 10^-7 M).
The cytokine profiles produced by the cells after restimulation are evaluated after 6 h by FACS analysis, while the quantities are accumulated by the respective cell population in 1 ml for 48 h.
DO.11.10 mice transgenic for an ovalbumin323-339 specific αβTCR were used as a source of antigen specific T cells. […] They were backcrossed on to a BALB/C background and (DO11.10×BALB/C)F1 mice were used as the source of T cells in all experiments. BALB/C (Taconics, Germantown, N.Y.) mice were used to provide splenic antigen presenting cells (APC).
Briefly, immunomagnetic depletion of CD8α^+, B220^+, and Mac-1^+ splenocytes was performed using goat anti-rat Ig coated beads (Biomag, PerSeptive Biosystems, Framingham, Mass.). The depleted population was then stained with anti-CD4-FITC and anti-L-selectin-PE and CD4^+ L-selectin^high cells were sorted using a FACStar^Plus cell sorter (Becton-Dickinson, Mountain View, Calif.). […] After 6 days, T cells were harvested, counted, and restimulated at 2.5×10^4 per well in 200 μl in 96 well plates for phenotype analysis by cytokine secretion. […]

C=C1/C(=C\C=C2/CCC[C@]3(C)[C@@H]([C@H](C)CCCC(C)(C)O)CC[C@@H]23)C[C@@H](O)C[C@@H]1O [VitD3, 1,25(OH)-Dihydroxyvitamin D3]
Resulting T cell population / cytokine profile (in words): drive the development of Th2 cells producing high levels of IL-4 and IL-5 and reduced IFN-γ
